Laboratory results reported in patent US5489591A, “S-triazine derivative and remedy for estrogen-dependent disease containing said derivative as effective component” (Zenyaku Kogyo Kabushiki Kaisha, priority 1992, dated 1996).
Structures can show the parent of a compound that is named as a salt.

Legend:
[1] = Acute toxicity in ICR female mice, oral (Pharmacological Test 4); details: mouse, in vivo, suspended in distilled water with 1% hydroxypropylcellulose, observation for fourteen days
Source text: The acute toxicity of the compounds of the present invention was examined by the following method.

Aromatase = target: T1, Aromatase (Homo sapiens, UniProt P11511); assay: Aromatase inhibitory activity (Pharmacological Test 1, human placenta microsome); type: biochemical; details: substrate 4-androsten-3,17-dione 1.0×10^-6 M, read-out: AI-IC50
T1 construct: human placenta microsome; from tissue; host or cells: human placenta microsomes
T1 sequence (P11511 1-503): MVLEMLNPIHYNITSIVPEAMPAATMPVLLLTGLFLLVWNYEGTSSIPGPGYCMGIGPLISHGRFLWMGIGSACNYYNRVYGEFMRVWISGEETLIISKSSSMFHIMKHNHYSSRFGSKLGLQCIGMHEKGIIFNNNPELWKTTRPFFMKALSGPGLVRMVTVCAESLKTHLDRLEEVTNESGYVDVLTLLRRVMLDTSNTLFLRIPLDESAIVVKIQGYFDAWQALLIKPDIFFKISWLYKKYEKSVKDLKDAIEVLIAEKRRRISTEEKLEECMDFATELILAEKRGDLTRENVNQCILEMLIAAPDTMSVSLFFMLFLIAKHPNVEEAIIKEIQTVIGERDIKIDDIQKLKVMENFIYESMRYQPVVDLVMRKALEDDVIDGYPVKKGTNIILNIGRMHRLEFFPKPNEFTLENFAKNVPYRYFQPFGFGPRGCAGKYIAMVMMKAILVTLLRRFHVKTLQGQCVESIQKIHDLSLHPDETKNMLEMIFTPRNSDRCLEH
Experimental: Aromatase inhibitory activity was determined according to the method of E. A. Thompson and P. K. Siiteri [J. Biol. Chem., 249, 5364-5372 (1974)]. The each compound to be tested was added to a reaction vial containing human placenta microsome, [1β,2 β-^3 H]4-androsten-3,17-dione (3.3 kBq/500 pmol) and NADPH. […] The obtained [^3 H]H2 O was measured by a liquid scintillation counter. The measured quantity of [3H]H20 was used to determine aromatase activity, and was compared with the activity when incubated without inhibitor to calculate inhibition ratio (%).

[2] = target: T2, cholesterol side-chain cleaving enzyme (Sus scrofa, UniProt P10612); assay: Inhibitory activity against cholesterol side-chain cleaving enzyme (Pharmacological Test 2, porcine adrenal mitochondria); type: biochemical; details: substrate 5-cholesten-3β-ol 5.0×10^-6 M, read-out: SCC-IC50
T2 construct: porcine adrenal mitochondria; from tissue; host or cells: porcine adrenal mitochondria
T2 sequence (P10612 40-520): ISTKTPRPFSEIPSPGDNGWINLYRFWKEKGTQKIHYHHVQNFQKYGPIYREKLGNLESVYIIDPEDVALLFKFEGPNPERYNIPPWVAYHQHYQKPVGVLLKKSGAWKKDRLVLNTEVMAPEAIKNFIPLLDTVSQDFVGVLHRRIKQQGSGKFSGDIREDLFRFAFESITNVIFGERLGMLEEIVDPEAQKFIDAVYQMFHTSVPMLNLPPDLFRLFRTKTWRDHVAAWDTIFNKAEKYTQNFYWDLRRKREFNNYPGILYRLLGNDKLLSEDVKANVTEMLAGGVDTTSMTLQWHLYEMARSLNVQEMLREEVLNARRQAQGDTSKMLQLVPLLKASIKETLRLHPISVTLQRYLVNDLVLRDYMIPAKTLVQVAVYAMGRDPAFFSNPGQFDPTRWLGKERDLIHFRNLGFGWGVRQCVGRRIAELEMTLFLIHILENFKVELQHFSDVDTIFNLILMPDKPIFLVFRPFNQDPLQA
Experimental: Inhibitory activity against cholesterol side-chain cleaving enzyme was determined according to the method of M. Shikita and P. F. Hall [Proc. Nat. […] Briefly, the each compound to be tested was added to a reaction vial containing porcine adrenal mitochondria, [4-^14 C]5-cholesten-3β-ol (250 Bq/5 nmol) and NADPH. […] These were separated by extracting the reaction mixture with methylene-dichloride followed by purifying with thin-layer chromatography. Substrate (5-cholesten-3β-ol) and reaction product (3β-hydroxypregn-5-en-20-one) were respectively measured by a liquid scintillation counter. The measured quantity of 3β-hydroxypregn-5-en-20-one was used to determine cholesterol side-chain cleaving activity which was compared with the activity when incubated without inhibitor to calculate inhibition ratio (%).

| Compound | IC50 (Aromatase) [nM] | IC50 [2] [µM] | LD50 at 336 h [1] [mg/kg] |
| --- | --- | --- | --- |
| c1cn(-c2nc(N3CCOCC3)nc(N3CCSC3)n2)cn1 [Compound 7, 2-(1-Imidazolyl)-4-morpholino-6-(3-thiazolidinyl)-1,3,5-triazine] | 6.6 | 72 | 300 to 400 |
| N#CC1(c2ccccc2)CCN(c2nc(N3CCOCC3)nc(-n3ccnc3)n2)CC1 [Compound 13, 2-(4-Cyano-4-phenylpiperidino)-4-(1-imidazolyl)-6-morpholino-1,3,5-triazine] | 9 | 22 | > 400 |
| c1cn(-c2nc(N3CCOCC3)nc(N3CCOCC3)n2)cn1 [Compound 16, 2-(1-Imidazolyl)-4,6-dimorpholino-1,3,5-triazine] | 5.3 | > 100 | 200 to 300 |
| c1cn(-c2nc(N3CCOCC3)nc(N3CCSCC3)n2)cn1 [Compound 37, 2-(1-Imidazolyl)-4-morpholino-6-thiomorpholino-1,3,5-triazine] | 11 | > 100 | > 400 |
| c1ccc(C2CCN(c3nc(N4CCOCC4)nc(-n4ccnc4)n3)CC2)cc1 [Compound 38, 2-(1-Imidazolyl)-4-morpholino-6-(4-phenylpiperidino)-1,3,5-triazine] | 38 | 23 | > 400 |
| c1cnc(N2CCN(c3nc(N4CCOCC4)nc(-n4ccnc4)n3)CC2)nc1 [Compound 44, 2-(1-Imidazolyl)-4-morpholino-6-[4-(2-pyrimidinyl)-1-piperazinyl]-1,3,5-triazine] | 33 | > 100 | – |
| OC1CCN(c2nc(N3CCOCC3)nc(-n3ccnc3)n2)CC1 [Compound 46, 2-(4-Hydroxypiperidino)-4-(1-imidazolyl)-6-morpholino-1,3,5-triazine] | 53 | 100 | – |
| CN(c1ccc(Cl)cc1)c1nc(N2CCOCC2)nc(-n2ccnc2)n1 [Compound 55, 2-[N-(4-Chlorophenyl)-N-methylamino]-4-(1-imidazolyl)-6-morpholino-1,3,5-triazine] | 7.7 | 26 | > 400 |
| CN(c1ccc(N)cc1)c1nc(N2CCOCC2)nc(-n2ccnc2)n1 [Compound 56, 2-[N-(4-Aminophenyl)-N-methylamino]-4-(1-imidazolyl)-6-morpholino-1,3,5-triazine] | 32 | > 100 | – |
| Nc1ccc(N2CCN(c3nc(N4CCOCC4)nc(-n4ccnc4)n3)CC2)cc1 [hydrochloride of No. 57, Hydrochloride of 2-[4-(4-aminophenyl)-1-piperazinyl]-4-(1-imidazolyl)-6-morpholino-1,3,5-triazine] | 31 | > 100 | – |

Now from value to molecule, other results behind:

| IC50 (Aromatase) [nM] | IC50 [2] [µM] | Compound | LD50 at 336 h [1] [mg/kg] |
| --- | --- | --- | --- |
| 7.2 | > 100 | O=[N+]([O-])c1ccc(N2CCN(c3nc(N4CCOCC4)nc(-n4ccnc4)n3)CC2)cc1 [Compound 45, 2-(1-Imidazolyl)-4-morpholino-6-[4-(4-nitrophenyl)-1-piperazinyl]-1,3,5-triazine] | – |
| 44 | > 100 | OCCC1CCCCN1c1nc(N2CCOCC2)nc(-n2ccnc2)n1 (stereo not drawn) [Compound 47, 2-[2-(2-Hydroxyethyl)piperidino]-4-(1-imidazolyl)-6-morpholino-1,3,5-triazine] | – |
| 16 | 15 | CCCCN(c1ccccc1)c1nc(-n2ccnc2)nc(-n2ccnc2)n1 [Compound 50, 2-(N-n-Butyl-N-phenylamino)-4,6-bis (1-imidazolyl)-1,3,5-triazine] | – |
| 10 | > 100 | CN(c1ccc([N+](=O)[O-])cc1)c1nc(-n2ccnc2)nc(-n2ccnc2)n1 [Compound 52, 2,4-Bis(1-imidazolyl)-6-[N-methyl-N-(4-nitrophenyl)amino]-1,3,5-triazine] | – |
| 8.6 | 19 | CN(c1ccc(Cl)cc1)c1nc(-n2ccnc2)nc(-n2ccnc2)n1 [Compound 54, 2-[N-(4-Chlorophenyl)-N-methylamino]-4,6-bis(1-imidazolyl)-1,3,5-triazine] | – |
